The results in this text go back to patent US9540314B2, “N-cycloalkyl-N-[(cycloalkenylphenyl)methylene]-(thio) carboxamide derivatives” (BAYER INTELLECTUAL PROPERTY GMBH, priority 2012, dated 2017).

Data set [1] in a line: log P by HPLC on a reversed-phase column (C 18), EEC Directive 79/831 Annex V.A8. The settings on record: Table 1; HPLC C 18, 40° C., 0.1% aqueous formic acid and acetonitrile; several values = mixture of 2 or more isomers. In kind it is physicochemical. As for the experimental part:
In table 1, the log P values were determined in accordance with EEC Directive 79/831 Annex V.A8 by HPLC (High Performance Liquid Chromatography) on a reversed-phase column (C 18), using the method described below:
Temperature: 40° C.; Mobile phases: 0.1% aqueous formic acid and acetonitrile; linear gradient from 10% acetonitrile to 90% acetonitrile.
Calibration was carried out using unbranched alkan-2-ones (comprising 3 to 16 carbon atoms) with known log P values (determination of the log P values by the retention times using linear interpolation between two successive alkanones). lambda-max-values were determined using UV-spectra from 200 nm to 400 nm and the peak values of the chromatographic signals.

Another data set deals with Sphaerotheca fuliginea. The experiment in a line: In vivo preventive test on Sphaerotheca fuliginea (powdery mildew on cucurbits). The settings on record: 500 ppm, gherkin plants, grading 12 days after contamination. As for the experimental part:
(§1) The active ingredients tested are prepared by homogenization in a mixture of acetone/tween/DMSO and then diluted with water to obtain the desired active material concentration.
Gherkin plants (“Vert petit de Paris” variety), sown in starter cups on a 50/50 peat soil-pozzolana substrate and grown at 24° C., are treated at the Z11 cotyledon stage by spraying with the active ingredient prepared as described above. Plants, used as controls, are treated with the mixture of acetone/tween/DMSO/water not containing the active material.
After 24 hours, the plants are contaminated by spraying the cotyledons with an aqueous suspension of Sphaerotheca fuliginea spores (100 000 spores per mL). The spores are collected from infected plants. The contaminated gherkin plants are incubated at about 20° C. and at 70-80% relative humidity.
(§2) Grading (% of efficacy) is carried out 12 days after the contamination, in comparison with the control plants.
Under these conditions, good (at least 70%) to total protection is observed at a dose of 500 ppm of active ingredient with the following compounds from table A: […]

Another data set has as its system Alternaria brassicae. In words: In vivo preventive test on Alternaria brassicae (leaf spot on radish). The following applies: radish plants. As for the experimental part: (§3) The active ingredients tested are prepared by homogenization in a mixture of acetone/tween/DMSO, and then diluted with water to obtain the desired active material concentration.
Radish plants (“Pernod Clair” variety), sown in starter cups on a 50/50 peat soil pozzolana substrate and grown at 17° C., are treated at the cotyledon stage by spraying with the active ingredient prepared as described above. Plants, used as controls, are treated with the mixture of acetone/tween/DMSO/water not containing the active material.
After 24 hours, the plants are contaminated by spraying the cotyledons with an aqueous suspension of Alternaria brassicae spores (50 000 spores per mL). The spores are collected from a 15-day-old culture.
The contaminated radish plants are incubated at 20° C. and at 100% relative humidity.
Grading (% of efficacy) is carried out 6 days after the contamination, in comparison with the control plants.
Under these conditions, high (at least 80%) to excellent (at least 90%) protection is observed at a dose of 500 ppm of active ingredient with the following compounds from table C1: […]

The subject of another data set is Pyrenophora teres. The experiment in a line: In vivo preventive test on Pyrenophora teres (barley). The following applies: 500 ppm of active ingredient; barley plants, preventive spray; grading 14 days after contamination. As for the experimental part:
as §3
Barley plants (“Plaisant” variety), sown in starter cups on a 50/50 peat soil pozzolana substrate and grown at 22° C., are treated at the 1 leaf stage (10 cm height) by spraying with the active ingredient prepared as described above. Plants, used as controls, are treated with the mixture of acetone/tween/DMSO/water not containing the active material.
After 24 hours, the plants are contaminated by spraying the leaves with an aqueous suspension of Pyrenophora teres spores (12 000 spores per mL). The spores are collected from a 12-day-old culture.
The contaminated barley plants are incubated for 48 hours at 20° C. and at 100% relative humidity, and then for 12 days at 20° C. at 70-80% relative humidity.
Grading (% of efficacy) is carried out 14 days after the contamination, in comparison with the control plants.
Under these conditions, good (at least 70%) to total protection is observed at a dose of 500 ppm of active ingredient with the following compounds from table H1: […]

The next data set relates to Puccinia recondita. The experiment in a line: In vivo preventive test on Puccinia recondita (brown rust on wheat). The following applies: 500 ppm of active ingredient; wheat plants, preventive spray; grading 12 days after contamination. As for the experimental part:
as §3
(§4) Wheat plants (“Scipion” variety), sown in starter cups on a 50/50 peat soil pozzolana substrate and grown at 22° C., are treated at the 1 leaf stage (10 cm height) by spraying with the active ingredient prepared as described above. Plants, used as controls, are treated with the mixture of acetone/tween/DMSO/water not containing the active material.
After 24 hours, the plants are contaminated by spraying the leaves with an aqueous suspension of Puccinia recondita spores (100 000 spores per mL). The spores are collected from an infected plant and are suspended in water containing 2.5 mL/L of Tween 80 at 10%. The contaminated wheat plants are incubated for 24 hours at 20° C. and at 100% relative humidity, and then for 10 days at 20° C. and at 70-80% relative humidity.
as §2
Under these conditions, good (at least 70%) to total protection is observed at a dose of 500 ppm of active ingredient with the following compounds from table I: […]

Another data set relates to Septoria tritici. The experiment in a line: In vivo preventive test on Septoria tritici (wheat). The settings on record: 500 ppm of active ingredient; wheat plants, preventive spray; grading 24 days after contamination. As for the experimental part:
as §3, §4
After 24 hours, the plants are contaminated by spraying the leaves with an aqueous suspension of cryopreserved Septoria tritici spores (500 000 spores per mL). The contaminated wheat plants are incubated for 72 hours at 18° C. and at 100% relative humidity, and then for 21 days at 90% relative humidity.
Grading (% of efficacy) is carried out 24 days after the contamination, in comparison with the control plants.
Under these conditions, good (at least 70%) to total protection is observed at a dose of 500 ppm of active ingredient with the following compounds from table J: […]

The subject of another data set is Uromyces appendiculatus. The experiment in a line: In vivo preventive test on Uromyces appendiculatus (bean rust). The settings on record: 500 ppm of active ingredient; bean plants, preventive spray; grading 11 days after contamination (table K1). As for the experimental part: as §3
After 24 hours, the plants are contaminated by spraying the leaves with an aqueous suspension of Uromyces appendiculatus spores (150 000 spores per mL). The spores are collected from infected plants and are suspended in water containing 2.5 mL/L of Tween 80 at 10%. The contaminated bean plants are incubated for 24 hours at 20° C. and at 100% relative humidity, and then for 10 days at 20° C. and at 70-80% relative humidity.
Grading (% of efficacy) is carried out 11 days after the contamination, in comparison with the control plants.

The subject of a further data set is Botrytis cinerea. In words: In vivo preventive test on Botrytis cinerea (grey mould), gherkin plants. The following applies: 500 ppm of active ingredient, preventive spray, grading 4 to 5 days after contamination. As for the experimental part:
as §1
Gherkin plants (“Vert petit de Paris” variety), sown in starter cups on a 50/50 peat soil pozzolana substrate and grown at 24° C., are treated at the Z11 cotyledon stage by spraying with the active ingredient prepared as described above. Plants, used as controls, are treated with the mixture of acetone/tween/DMSO/water not containing the active material.
After 24 hours, the plants are contaminated by spraying the cotyledons with an aqueous suspension of cryopreserved Botrytis cinerea spores (50 000 spores per mL). The spores are suspended in a nutrient solution composed of 10 g/L of PDB, 50 g/L of D-Fructose, 2 g/L of NH4NO3 and 1 g/L of KH2PO4. The contaminated gherkin plants are incubated at 17° C. and at 90% relative humidity.
Grading (% of efficacy) is carried out 4 to 5 days after the contamination, in comparison with the control plants.
Under these conditions, good (at least 70%) to total protection is observed at a dose of 500 ppm of active ingredient with the following compounds from table F: […]

[2] abbreviates: Table C1, 500 ppm, grading 6 days after contamination.

The logP is a log measure of how a compound divides between an organic and an aqueous phase. With `CC1CC=C(c2ccccc2C(C)N(C(=O)c2c(C(F)F)nn(C)c2F)C2CC2)CC1` (mixture of isomers) [I.45], in data set [1], the logP is on record as 5.03. Besides, the Efficacy in the data set with Sphaerotheca fuliginea was 100%; with Alternaria brassicae (setting [2]), 98%; with Pyrenophora teres, 97%; in the data set on Puccinia recondita it was 81%; in the data set with Septoria tritici, 100%; in the data set on Uromyces appendiculatus it was 75%.
For `CC(c1ccccc1C1=CCCCC1)N(C(=O)c1c(C(F)F)nn(C)c1F)C1CC1` (racemic) [I.32], the logP in data set [1] is on record as 4.61. In addition, the Efficacy with Sphaerotheca fuliginea was 100%; in the data set with Alternaria brassicae (setting [2]), 98%; in the data set on Alternaria brassicae (Table C2, dose 100 ppm, 6 days after contamination), 98%; with Alternaria brassicae (Table C2, dose 100 ppm, 6 days after contamination, listed as 1.32), “at least 95%”; with Alternaria brassicae (Table C2, dose 500 ppm, 6 days after contamination), 98%; with Alternaria brassicae (Table C2, dose 500 ppm, 6 days after contamination, listed as 1.32), “at least 95%”. Besides, the Efficacy in the data set with Pyrenophora teres came out at 97%; with Puccinia recondita it was 98%; in the data set on Septoria tritici it was 100%.
As for `Cn1nc(C(F)F)c(C(=O)N(Cc2c(C(F)(F)F)ccc(C3=CCCC3)c2F)C2CC2)c1F` [I.7], in data set [1], the log partition coefficient (logP) is 4.81. The Efficacy with Sphaerotheca fuliginea was 100%; in the data set with Alternaria brassicae (setting [2]), 80%; in the data set on Pyrenophora teres, 86%; with Puccinia recondita, 81%; in the data set on Septoria tritici, 97%; with Uromyces appendiculatus it was 98%.
`Cn1nc(C(F)F)c(C(=O)N(Cc2c(C3=CCCC3)ccc(F)c2F)C2CC2)c1F` [I.19]: the logP in data set [1] worked out at 4.11. The Efficacy with Sphaerotheca fuliginea is 100%; in the data set with Alternaria brassicae (setting [2]) it was 96%; in the data set on Pyrenophora teres it was 93%; with Puccinia recondita, 98%; in the data set on Septoria tritici, 97%; in the data set on Uromyces appendiculatus it was 100%.
Take `Cn1nc(C(F)F)c(C(=O)N(Cc2ccccc2C2=CCCCCC2)C2CC2)c1F` [I.53]: the logP in data set [1] was 4.85. In addition, the Efficacy in the data set with Sphaerotheca fuliginea is given as 100%; in the data set on Botrytis cinerea it was 100%; in the data set on Pyrenophora teres, 79%; in the data set on Puccinia recondita, 98%; with Septoria tritici, 100%; in the data set with Uromyces appendiculatus, 100%.
